Laboratory results as given in ChEMBL document CHEMBL1201862, “PubChem BioAssay data set” (2004).
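In this assay, cells in 96-well plates receive the compound at five concentrations for 48 hours. Endpoints are linearly interpolated between the surrounding concentrations. GI50 is the concentration that inhibits growth by half.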 The source made the active and inactive calls. Rule as the data show it: active = GI50 up to about 1.1 µM and inactive = higher.

Key:
Test in all cases: NCI tumour cell line growth inhibition, 48 h
SW-620 = system: SW-620
BT-549 = system: BT-549
UACC-62 = system: UACC-62
SF-268 = system: SF-268
MDA-MB-435 = system: MDA-MB-435
ACHN = system: ACHN
SK-MEL-2 = system: SK-MEL-2
NCI/ADR-RES = system: NCI/ADR-RES
SK-MEL-5 = system: SK-MEL-5
SF-539 = system: SF-539
NCI-H226 = system: NCI-H226
NCI-H23 = system: NCI-H23
UACC-257 = system: UACC-257
COLO 205 = system: COLO 205
K562 = system: K562
NCI-H460 = system: NCI-H460
LOX IMVI = system: LOX IMVI
MOLT-4 = system: MOLT-4
EKVX = system: EKVX
HCC 2998 = system: HCC 2998
CAKI-1 = system: CAKI-1
SR = system: SR
SNB-75 = system: SNB-75
Hs-578T = system: Hs-578T
RXF 393 = system: RXF 393
HOP-92 = system: HOP-92
SNB-19 = system: SNB-19
HCT-15 = system: HCT-15
OVCAR-3 = system: OVCAR-3
HCT-116 = system: HCT-116
OVCAR-5 = system: OVCAR-5
A498 = system: A498
A549 = system: A549
SK-OV-3 = system: SK-OV-3
MDA-N = system: MDA-N
CCRF-CEM = system: CCRF-CEM
SF-295 = system: SF-295
KM12 = system: KM12
OVCAR-8 = system: OVCAR-8
DU-145 = system: DU-145
HOP-62 = system: HOP-62
RPMI-8226 = system: RPMI-8226
MDA-MB-231 = system: MDA-MB-231
PC-3 = system: PC-3
IGROV-1 = system: IGROV-1
T47D = system: T47D
786-0 = system: 786-0
U-251 = system: U-251
UO-31 = system: UO-31
SK-MEL-28 = system: SK-MEL-28
MCF7 = system: MCF7
NCI-H522 = system: NCI-H522
M14 = system: M14
SN12C = system: SN12C
HT-29 = system: HT-29
TK-10 = system: TK-10
OVCAR-4 = system: OVCAR-4
Malme-3M = system: Malme-3M

Question: What does the source list for `O=C(CCc1cc(O)cc(O)c1)NCCc1cc(O)cc(OCc2ccccc2)c1`?
Answer: GI50 (SW-620): 72.1 µM (inactive); GI50 (BT-549): 29.6 µM (inactive); GI50 (UACC-62): 32.1 µM (inactive); GI50 (SF-268): 29.6 µM (inactive); GI50 (MDA-MB-435): 36.2 µM (inactive); GI50 (ACHN): 24.7 µM (inactive); GI50 (SK-MEL-2): 44.8 µM (inactive); GI50 (NCI/ADR-RES): > 100 µM (inactive); GI50 (SK-MEL-5): 19.1 µM (inactive); GI50 (SF-539): 36.7 µM (inactive); GI50 (NCI-H226): 62.7 µM (inactive); GI50 (NCI-H23): 23.4 µM (inactive); GI50 (UACC-257): 82.4 µM (inactive); GI50 (COLO 205): 48.3 µM (inactive); GI50 (K562): 36.1 µM (inactive); GI50 (NCI-H460): 20.4 µM (inactive); GI50 (LOX IMVI): 33.7 µM (inactive); GI50 (MOLT-4): 28.9 µM (inactive); GI50 (EKVX): 57.3 µM (inactive); GI50 (HCC 2998): 20.5 µM (inactive); GI50 (CAKI-1): > 100 µM (inactive); GI50 (SR): 30.5 µM (inactive); GI50 (SNB-75): 27.2 µM (inactive); GI50 (Hs-578T): 32.1 µM (inactive); GI50 (RXF 393): 37 µM (inactive); GI50 (HOP-92): 53.1 µM (inactive); GI50 (SNB-19): 26.4 µM (inactive); GI50 (HCT-15): 68.9 µM; GI50 (OVCAR-3): 35.7 µM (inactive); GI50 (HCT-116): 35.7 µM (inactive); GI50 (OVCAR-5): 63 µM (inactive); GI50 (A498): > 100 µM (inactive); GI50 (A549): 42.3 µM (inactive); GI50 (SK-OV-3): 59.4 µM (inactive); GI50 (MDA-N): 27.5 µM (inactive); GI50 (CCRF-CEM): > 10 µM (inactive); GI50 (SF-295): 32.9 µM (inactive); GI50 (KM12): 34 µM (inactive); GI50 (OVCAR-8): 34.3 µM (inactive); GI50 (DU-145): 33.1 µM (inactive); GI50 (HOP-62): 43.6 µM (inactive); GI50 (RPMI-8226): 35.8 µM (inactive); GI50 (MDA-MB-231): 29.8 µM (inactive); GI50 (PC-3): 37.8 µM (inactive); GI50 (IGROV-1): 59.3 µM (inactive); GI50 (T47D): 34 µM (inactive); GI50 (786-0): 64.9 µM (inactive); GI50 (U-251): 41.8 µM (inactive); GI50 (UO-31): 22.2 µM (inactive); GI50 (SK-MEL-28): 54.8 µM (inactive); GI50 (MCF7): 32.6 µM (inactive); GI50 (NCI-H522): 36.5 µM (inactive); GI50 (M14): 35.8 µM (inactive); GI50 (SN12C): 39.3 µM (inactive); GI50 (HT-29): 29 µM (inactive); GI50 (TK-10): > 100 µM (inactive)

Question: Which results are given for `CC(=O)N1N=C(c2ccc3ccccc3c2O)CC1c1ccc(Cl)cc1Cl` (stereo unspecified)?
Answer: GI50 (SW-620): 26.9 µM (inactive); GI50 (BT-549): > 100 µM (inactive); GI50 (UACC-62): > 100 µM (inactive); GI50 (SF-268): 26.9 µM (inactive); GI50 (MDA-MB-435): 25.4 µM (inactive); GI50 (ACHN): 29.6 µM (inactive); GI50 (SK-MEL-2): > 100 µM (inactive); GI50 (NCI/ADR-RES): 57.7 µM (inactive); GI50 (SK-MEL-5): 33.7 µM (inactive); GI50 (SF-539): 18.1 µM (inactive); GI50 (NCI-H226): 44.6 µM (inactive); GI50 (NCI-H23): > 100 µM (inactive); GI50 (UACC-257): 44.2 µM (inactive); GI50 (COLO 205): 28.3 µM (inactive); GI50 (K562): 7.69 µM (inactive); GI50 (NCI-H460): 12.3 µM (inactive); GI50 (MOLT-4): 7.67 µM (inactive); GI50 (HCC 2998): > 100 µM (inactive); GI50 (CAKI-1): 22.6 µM (inactive); GI50 (SR): 5.21 µM (inactive); GI50 (SNB-75): > 100 µM (inactive); GI50 (Hs-578T): 39.1 µM (inactive); GI50 (RXF 393): 30.3 µM (inactive); GI50 (OVCAR-4): 33.1 µM (inactive); GI50 (HOP-92): 54.6 µM (inactive); GI50 (Malme-3M): > 100 µM (inactive); GI50 (HCT-15): 56.9 µM; GI50 (OVCAR-3): 15.6 µM (inactive); GI50 (HCT-116): 16.7 µM (inactive); GI50 (OVCAR-5): > 100 µM (inactive); GI50 (A498): 27.9 µM (inactive); GI50 (A549): 25.1 µM (inactive); GI50 (SK-OV-3): > 100 µM (inactive); GI50 (MDA-N): 24.4 µM (inactive); GI50 (CCRF-CEM): 3.91 µM (inactive); GI50 (SF-295): 31.6 µM (inactive); GI50 (KM12): 46.2 µM (inactive); GI50 (OVCAR-8): 59 µM (inactive); GI50 (DU-145): > 100 µM (inactive); GI50 (HOP-62): 31.9 µM (inactive); GI50 (RPMI-8226): 17.3 µM (inactive); GI50 (MDA-MB-231): 26.7 µM (inactive); GI50 (PC-3): 17.1 µM (inactive); GI50 (IGROV-1): 22.4 µM (inactive); GI50 (T47D): 26.9 µM (inactive); GI50 (786-0): 18.9 µM (inactive); GI50 (U-251): 18.3 µM (inactive); GI50 (UO-31): > 100 µM (inactive); GI50 (SK-MEL-28): 93.1 µM (inactive); GI50 (MCF7): 13.2 µM (inactive); GI50 (NCI-H522): 25.7 µM (inactive); GI50 (M14): 27.2 µM (inactive); GI50 (SN12C): 19.6 µM (inactive); GI50 (HT-29): 28.7 µM (inactive); GI50 (TK-10): 52.7 µM (inactive)
